Experimental data from patent publication US20180353483A1, “PHARMACEUTICAL COMPOSITIONS AND METHODS FOR INDOLEAMINE, 2, 3-DIOXYGENASE INHIBITION AND INDICATIONS THEREFOR” (Incyte Corporation, priority 2015, published 2018).
Entries after “also recorded” stand apart in the source; their conditions may differ.

Assay: Dose-escalation study of Compound 1 pharmacokinetics in subjects with advanced malignancies (tablets of Formulations 1 and/or 3, fasted; food effect cohort)
Assay type: in vivo, human
Details: for tmax: median
From the text: Thus, Cmax, Cmin and Tmax were taken directly from the observed plasma concentration data or imputed in some cases. The terminal-phase disposition rate constant (λz) was estimated using a log-linear regression of the concentration data in the terminal disposition phase, and t1/2 was estimated as ln(2)/λz. AUC0-t and AUC0-τ was estimated using the linear trapezoidal rule for increasing concentrations and the log-trapezoidal rule for decreasing concentrations. At the PK steady-state, the apparent oral-dose clearance, CL/F, was estimated as Dose/AUC0-τ, and Vz/F was estimated as Dose/[AUC0-τ*λz].
The log-transformed pharmacokinetic parameters were compared among the BID dose groups using a 1-factor ANOVA with the factor for dose. Dose-dependent exposure parameters (Cmax and AUC) were normalized to a common dose before statistical comparisons were made.
The oral bioavailability (F) and systemic clearance (CL) were estimated. […] This method of estimation assumes near complete oral absorption and the liver being the primary organ for drug clearance. […] The above equation was modified to incorporate the term of Fa to accommodate an incomplete absorption: CL=(QH*Fa*CL/F)/(QH+Fa*CL/F).

[1] = 50 mg BID, steady state, geometric mean
[2] = 50 mg BID, steady state, mean ± SD
[3] = 50 mg QD, steady state, mean ± SD
[4] = 100 mg BID, steady state, geometric mean
[5] = 100 mg BID, steady state, mean ± SD
[6] = 300 mg BID, steady state, geometric mean
[7] = 300 mg BID, steady state, mean ± SD
[8] = 400 mg BID, steady state, geometric mean
[9] = 400 mg BID, steady state, mean ± SD
[10] = 500 mg BID, steady state, geometric mean
[11] = 500 mg BID, steady state, mean ± SD
[12] = 600 mg BID, steady state, geometric mean
[13] = 600 mg BID, steady state, mean ± SD
[14] = 700 mg BID, steady state, geometric mean
[15] = 700 mg BID, steady state, mean ± SD
[16] = BID doses 50 to 700 mg, steady state

With NS(=O)(=O)NCCNc1nonc1C(=NO)Nc1ccc(F)c(Br)c1 [Compound 1, 4-({2-[(aminosulfonyl)amino]ethyl}amino)-N-(3-bromo-4-fluorophenyl)-N′-hydroxy-1,2,5-oxadiazole-3-carboximidamide] the CL/F [1] was 40.3 L/h, the Cmax [1] was 715 nM and the AUC0-τ [2] was 3.05 ± 1.36 µM·h. It also gave a CL/F [2] of 43.3 ± 19.2 L/h, a Cmax [2] of 742 ± 212 nM and a Cmin [2] of 84 ± 63 nM. For the same compound, the t1/2 [2] was 2.4 ± 0.56 h, the tmax (50 mg BID, steady state) was 2.0 h and the trough concentrations (50 mg QD) was “low and generally not quantifiable”. The CL/F (50 mg QD, steady state, geometric mean) was 73.0 L/h, the AUC(0-t) [3] was 1.39 ± 0.256 µM·h and the CL/F [3] was 73.8 ± 14.7 L/h. It also gave a Cmin [3] of 0 ± 0 nM, a t1/2 [3] of 2.4 ± 0.26 h and a tmax (50 mg QD, steady state) of 2.0 h. It also gave a CL/F [4] of 42.4 L/h, a Cmin [4] of 171 nM and an AUC0-τ [5] of 5.77 ± 2.34 µM·h. It also gave a CL/F [5] of 45.8 ± 20.9 L/h, a Cmax [5] of 1230 ± 348 nM and a Cmin [5] of 201 ± 111 nM. For the same compound, the t1/2 [5] was 3.3 ± 0.75 h, the tmax (100 mg BID, steady state) was 2.0 h and the CL/F [6] was 70.2 L/h. It also gave a Cmin [6] of 251 nM, a t1/2 [6] of 3.5 h and an AUC0-τ [7] of 9.78 ± 0.86 µM·h. The CL/F [7] was 70.4 ± 6.19 L/h, the Cmax [7] was 2480 ± 515 nM and the Cmin [7] was 287 ± 146 nM. It also gave a t1/2 [7] of 3.9 ± 2.1 h, a tmax (300 mg BID, steady state) of 2.0 h and a CL/F [8] of 51.8 L/h. It also gave a Cmin [8] of 523 nM, an AUC0-τ [9] of 19.6 ± 7.43 µM·h and a CL/F [9] of 62.3 ± 52.3 L/h. The Cmax [9] was 4390 ± 2020 nM, the Cmin [9] was 624 ± 339 nM and the t1/2 [9] was 2.7 ± 0.62 h. For the same compound, the tmax (400 mg BID, steady state) was 2.0 h, the CL/F [10] was 58.0 L/h and the Cmin [10] was 562 nM. The AUC0-τ [11] was 20.6 ± 6.82 µM·h, the CL/F [11] was 60.5 ± 19.1 L/h and the Cmin [11] was 604 ± 260 nM. For the same compound, the t1/2 [11] was 2.4 ± 0.37 h, the tmax (500 mg BID, steady state) was 2.0 h and the “effect of a high-fat meal on plasma exposures” value (600 mg BID, 1-way crossover ANOVA) was “not statistically significant”. The tmax (600 mg BID, food effect cohort, Fasted) was 2.0 h, the “decrease of geometric mean Cmax by a high-fat meal” value (600 mg BID, steady state) was “approximately 10%” and the “increase of geometric mean AUC0-12h by a high-fat meal” value (600 mg BID, steady state) was 22%. For the same compound, the CL/F [12] was 63.5 L/h, the Cmin [12] was 731 nM and the CL/F [13] was 66.4 ± 18.6 L/h. It also gave a Cmin [13] of 932 ± 704 nM, a t1/2 [13] of 3.3 ± 0.97 h and a tmax (600 mg BID, steady state) of 2.0 h. For the same compound, the “highest steady-state mean unbound daily AUC0-24h (=2×AUC0-12h)” value (700 mg BID) was 2.2 µM·h, the CL/F [14] was 47.2 L/h and the Cmin [14] was 1260 nM. The AUC0-τ [15] was 35.8 ± 15.5 µM·h, the CL/F [15] was 49.5 ± 17.1 L/h and the Cmax [15] was 6230 ± 2090 nM. The Cmin [15] was 1320 ± 417 nM, the “dose proportionality of exposures (Cmax and AUC)” value (50 to 700 mg BID) was “slightly less than proportional to dose; also recorded: less than proportional to dose” and the “exponent β of power-function regression, AUC0-12h vs Dose” value [16] was 0.843. The “exponent β of power-function regression, Cmax vs Dose” value [16] was 0.779.
